Reference: patent US10376553B2, “Pharmaceutical composition for preventing and treating chronic obstructive lung disease containing, as active ingredient, Magnoliae flos extract, fraction, or active fraction thereof” (KOREA RESEARCH INSTITUTE OF BIOSCIENCE AND BIOTECHNOLOGY, priority 2015, dated 2019)

Assays:
[1] = system: inflammatory cells in the bronchoalveolar lavage fluid; assay: Inflammatory cells in bronchoalveolar lavage fluid of the COPD mouse model (cigarette smoke + LPS); format: in vivo, C57BL/6N mice; conditions: BALF, vs COPD-induced group
Method: Six-week-old male SPF (specific pathogen-free) C57BL/6N mice (22 to 24 g) were supplied by Koatech (Korea). These animals were fed with a sufficient amount of solid feed (no antibiotics, Samyang Feed Co.) and water until the day of the experiment. They were allowed to adapt for 1 week in a light-dark cycle environment at a temperature of 22±2° C. and a humidity of 55±15%, and then subjected to the experiment.
The animal model was exposed to cigarette smoke to induce chronic obstructive pulmonary disease. 3R4F Kentuchy Reference Cigarettes as standard cigarettes for use to generate cigarette smoke were supplied by University of California (USA). The standard cigarettes contain 9.4 mg of tar, 11 mg of total particle matter (TPM), and 12 mg of carbon monoxide per 1 cigarette. The standard cigarettes were used after harmonization for 48 hours to 72 hours at a temperature of 22±1° C. and a humidity of 60±2%. Further, Cigarette Smoke Generator manufactured by Korea BioLink (Korea) was used for exposure to cigarette smoke. Cigarette smoke was inhaled for 1 hour (8 pcs/hour) for 7 days from 1 hour after oral administration of a sample. 10 μg of LPS (lipopolysaccharide) in PBS 50 μL was injected intranasally to each mouse on the 4th day of the experiment after the mouse was anesthetized with zoletyl 1 hour before the exposure to cigarette smoke. The smoking condition was 8 puffs per 1 standard cigarette (volume: 45 mL, duration: 2 seconds, and interval: 1 time/min).
The active fraction of Magnoliae flos (15, 30 mg/kg) and roflumilast (10 mg/kg) as therapeutic substances were dissolved in 0.5% sodium carboxymethyl cellulose and were orally administered 1 hour before the exposure to cigarette smoke.
The experimental groups were divided into (i) normal control (NC) group; (ii) cigarette smoke+LPS exposure group (COPD); (iii) experimental group administered with roflumilast (ROF) (10 mg/kg, p.o) 1 hour before the exposure to cigarette smoke+LPS; and (iv) experimental group administered with the active fraction of Magnoliae flos (15, 30 mg/kg, p.o; Magnoliae flos 15 and Magnoliae flos 30) 1 hour before the exposure to cigarette smoke+LPS. […] Then, they were administered in the same manner as above.
The bronchial alveolar lavage fluid was separated from the animal model treated with the active fraction and the compounds of Magnoliae flos in <Test Example 6-2> above in the following manner, and the number of inflammatory cells was measured.
Specifically, a mouse sonde was inserted into the bronchial tube, a 1 mL syringe containing 0.7 mL of DPBS (Dulbecco's Phosphate-Buffered Saline) was connected thereto, and DPBS was injected into the lung. The injected DPBS was recovered, and this procedure was repeated twice. The bronchoalveolar lavage fluid separated by DPBS was centrifuged at 1,500 rpm for 15 minutes to make a cell pellet. The supernatant was stored frozen at −70° C. for cytokine analysis. Each cell obtained was suspended in DPBS, attached to a slide glass using a cytospin centrifuge, and Diff-Quik stained. The number of inflammatory cells in each sample was counted through microscopic examination, and the inhibition rate was calculated according to the following Equation 3.
Inhibition rate=(Value of COPD-induced group−value of target substance administered group)×100/(Value of COPD-induced group) [Equation 3]

MUC5AC promoters = assay: MUC5AC promoter luciferase reporter assay in H292 cells; format: cell-based, human; conditions: Table 7, MUC5AC promoter luciferase reporter, 10 μM, TNF-α 20 ng/mL
Source text: The degree of activation of luciferase was confirmed using a One-glow Luciferase Assay System (Promega).
As a result, as shown in the following Table 7, the activity of the MUC5AC promoters increased in the group treated with TNF-α.

MUC5AC protein = assay: Inhibition of MUC5AC protein production (immunoassay) by the compounds; format: cell-based, human; conditions: for Inhibition rate (%): MUC5AC secretion; for Inhibition rate (%) / MUC5AC secretion (Relative amount to TNF-α treated group, %): TNF-α 20 ng/mL; for production of MUC5AC (in words): vs TNF-α treated group = 100%
Method: For immunoassay of the resulting MUC5AC, the supernatant (50 uL) recovered was dispensed on to a 96-well plate and dried in a thermostat set at 50° C. It was washed with PBS supplemented with 1% BSA and reacted with an MUC5AC antibody (abcam, USA) at room temperature for 1 hour. A secondary antibody was dispensed thereto for reaction for 1 hour. It was washed again and then reacted with a 3,3′,5,5′-tetramethylbenzidine peroxide solution for 20 minutes. After the reaction was stopped with a sulfuric acid solution, the degree of color development was measured at 450 nm.
As a result, as shown in the following Table 6, the amount of MUCSAC secretion increased in the group treated with TNF-α.

TNF-α = TNF-α level in BALF of the COPD model (ELISA); format: in vivo, C57BL/6N mice; conditions: vs COPD-induced group; for TNF-α inhibition rate (%): BALF
Method: (§1) Cytokines were measured in the cell supernatant obtained in <Test Example 6-3> above by the following method. Specifically, the levels of IL-6 (R & D System, USA) and TNF-α (BD Bioscience, USA) in the separated BALF were measured by enzyme-linked immuno-sorbent assay (ELISA). Each cytokine analysis was carried out according to the manufacturer's test method.

IL-6 = IL-6 level in BALF of the COPD model (ELISA); format: in vivo, C57BL/6N mice; conditions: BALF, vs COPD-induced group
Method: as §1

H292 cells = assay: Cytotoxicity (CCK-8 cell viability) of the compounds of Magnoliae flos in H292 cells; format: cell-based, human; conditions: 24 h, vs 0.2% DMSO control = 100%
Method: Then, 10 μl of the CCK-8 solution (Dojindo Laboratories, Japan) was mixed with 90 μl of the medium, and 100 μl thereof was added per well. After incubation for a minimum of 30 minutes to a maximum of 4 hours, the absorbance was measured at 570 nm. The cell viability was calculated according to the following Equation 2 with a negative control group treated with 0.2% DMSO as a reference of 100%.
Cell viability=(Compound treated OD 570 nm value)×100/(Negative control group OD 570 nm value) [Equation 2]

reactive oxygen species = assay: Production of active oxygen species in BALF of the COPD model (DCF-DA); format: in vivo, C57BL/6N mice
Method: Production of active oxygen species in the bronchoalveolar lavage fluid obtained in <Test Example 6-3> above was confirmed by the following method.
Specifically, the separated BALF (200 μL) was treated to the final concentration of 20 μM of DCF-DA (dihydrodichlorofluorescein diacetate, Sigma-Aldrich, USA), followed by culturing for 30 minutes and measurement using Fluorescence (Molecular Device, USA). The inhibition rate was calculated by Equation 3 above.

[2] = 15 mg/kg p.o., vs COPD-induced group
[3] = 30 mg/kg p.o., vs COPD-induced group

`COc1cc([C@H]2OC[C@H]3[C@@H]2CO[C@@H]3c2cc(OC)c(OC)c(OC)c2)cc(OC)c1OC` [Compound S3, dimethylliroresinol] was tested, and the “Inhibition rate of inflammatory cell infiltration (%) Macrophage” value (shortened to “Inhibition rate … (%) Macrophage”) ([1]; 15 mg/kg p.o.) was 19.4 ± 5.4%, the “Inhibition rate of inflammatory cell infiltration (%) Neutrophil” value (“Inhibition rate … (%) Neutrophil” for short) ([1]; 15 mg/kg p.o.) was 17.9 ± 6.6% and the “Inhibition rate of inflammatory cell infiltration (%) Total inflammatory cells” value (“Inhibition rate … (%) Total inflammatory cells” below) ([1]; 15 mg/kg p.o.) was 23.3 ± 5.5%. The “Inhibition rate … (%) Macrophage” value ([1]; 30 mg/kg p.o.) was 33.2 ± 6.2%, the “Inhibition rate … (%) Neutrophil” value ([1]; 30 mg/kg p.o.) was 42.1 ± 3.9% and the “Inhibition rate … (%) Total inflammatory cells” value ([1]; 30 mg/kg p.o.) was 43.5 ± 3.4%. The “increase in inflammatory cells (in words)” value [1] was “effectively inhibited”, the “Inhibition rate (%)” value (MUC5AC promoters) was 56.27% and the “Inhibition rate (%)” value (MUC5AC protein; 2.5 μM) was 2.5%. The “Inhibition rate (%)” value (MUC5AC protein; 5 μM) was 29.38%, the “Inhibition rate (%)” value (MUC5AC protein; 10 μM) was 30.34% and the “production of MUC5AC (in words)” value (MUC5AC protein) was “inhibited in a manner depending on the concentrations”. The “production of MUC5AC (in words)” value (MUC5AC protein; listed as Formula 4) was “inhibited the production of MUC5AC in a manner depending on concentration”, the “TNF-α inhibition rate (%)” value (TNF-α; 15 mg/kg p.o.) was 26.7 ± 7.0% and the “TNF-α inhibition rate (%)” value (TNF-α; 30 mg/kg p.o.) was 41.7 ± 4.4%. The “TNF-α secretion in the bronchoalveolar lavage fluid (in words)” value (TNF-α) was “concentration-dependent inhibition”, the “IL-6 inhibition rate (%)” value (IL-6; 15 mg/kg p.o.) was 45.9 ± 6.2% and the “IL-6 inhibition rate (%)” value (IL-6; 30 mg/kg p.o.) was 43.9 ± 6.5%. The “Viability of H292 cells (%, average ± deviation)” value (H292 cells; 2.5 μM) was 100.55 ± 1.26%, the “Active oxygen inhibition rate (%)” value (reactive oxygen species; [2]) was 15.1 ± 4.7% and the “Active oxygen inhibition rate (%)” value (reactive oxygen species; [3]) was 32.5 ± 3.1%. For the same molecule, the “production of active oxygen species (in words)” value (reactive oxygen species; 15 and 30 mg/kg, vs COPD-induced group) was “relatively higher inhibition rates in a manner depending on concentration”.

For `COc1ccc([C@H]2OC[C@H]3[C@@H]2CO[C@@H]3c2cc(OC)c(OC)c(OC)c2)cc1OC` [Compound S2, magnolin], the “Inhibition rate … (%) Macrophage” value ([1]; 15 mg/kg p.o.) was 21.6 ± 6.3%, the “Inhibition rate … (%) Neutrophil” value ([1]; 15 mg/kg p.o.) was 47.2 ± 3.6% and the “Inhibition rate … (%) Total inflammatory cells” value ([1]; 15 mg/kg p.o.) was 44.7 ± 3.9%. For the same molecule, the “Inhibition rate … (%) Macrophage” value ([1]; 30 mg/kg p.o.) was 10.7 ± 9.8%, the “Inhibition rate … (%) Neutrophil” value ([1]; 30 mg/kg p.o.) was 31.0 ± 7.1% and the “Inhibition rate … (%) Total inflammatory cells” value ([1]; 30 mg/kg p.o.) was 30.7 ± 5.3%. For the same molecule, the “Inhibition rate (%)” value (MUC5AC promoters) was 55.2%, the “MUC5AC secretion (Relative amount to TNF-α treated group, %)” value (MUC5AC promoters) was 44.8 ± 7.33% and the “MUC5AC secretion (Relative amount to TNF-α treated group, %)” value (MUC5AC protein; 2.5 μM) was 97.57 ± 0.78%. For the same molecule, the “MUC5AC secretion (Relative amount to TNF-α treated group, %)” value (MUC5AC protein; 5 μM) was 81.17 ± 0.82%, the “MUC5AC secretion (Relative amount to TNF-α treated group, %)” value (MUC5AC protein; 10 μM) was 65.67 ± 0.99% and the “Inhibition rate (%)” value (MUC5AC protein; 2.5 μM) was 2.43%. For the same molecule, the “Inhibition rate (%)” value (MUC5AC protein; 5 μM) was 18.83%, the “Inhibition rate (%)” value (MUC5AC protein; 10 μM) was 34.33% and the “production of MUC5AC (in words)” value (MUC5AC protein) was “inhibited in a manner depending on the concentrations”. The “production of MUC5AC (in words)” value (MUC5AC protein; listed as Formula 3) was “inhibited the production of MUC5AC in a manner depending on concentration”, the “TNF-α inhibition rate (%)” value (TNF-α; 15 mg/kg p.o.) was 29.2 ± 4.8% and the “TNF-α inhibition rate (%)” value (TNF-α; 30 mg/kg p.o.) was 31.0 ± 7.2%. For the same molecule, the “IL-6 inhibition rate (%)” value (IL-6; 15 mg/kg p.o.) was 64.9 ± 4.8%, the “IL-6 inhibition rate (%)” value (IL-6; 30 mg/kg p.o.) was 36.6 ± 8.9% and the “Viability of H292 cells (%, average ± deviation)” value (H292 cells; 2.5 μM) was 121.81 ± 2.42%. The “Viability of H292 cells (%, average ± deviation)” value (H292 cells; 5 μM) was 119.94 ± 2.81%, the “Viability of H292 cells (%, average ± deviation)” value (H292 cells; 10 μM) was 118.37 ± 2.55% and the “Viability of H292 cells (%, average ± deviation)” value (H292 cells; 20 μM) was 112.99 ± 4.16%. The “Active oxygen inhibition rate (%)” value (reactive oxygen species; [2]) was 21.8 ± 4.4%, the “rate of inhibiting reactive oxygen compared with ROF drug control group (in words)” value (reactive oxygen species; 30 mg/kg) was “higher rates of inhibiting reactive oxygen than that of the drug control group treated with ROF” and the “Active oxygen inhibition rate (%)” value (reactive oxygen species; [3]) was 14.0 ± 8.3%.
